Assay results: patent US4603217A, “Ester substituted alkyl-2-(2,6-dichloroanilino)phenyl acetates” (priority 1983, dated 1986)

How the values were obtained:
ultraviolet erythema = experiment: inhibition action for ultraviolet erythema; format: in vivo, male Hartley guinea pigs; parameters: 2 hs after the irradiation, Average ± standard error / 3 hs after the irradiation, Average ± standard error / 5 hs after the irradiation, Average ± standard error: scale not given here; 2 hs after the irradiation, Rate for inhibition / 3 hs after the irradiation, Rate for inhibition / 5 hs after the irradiation, Rate for inhibition: unit not given here; conditions: guinea pigs; for 2 hs after the irradiation, Average ± standard error / 2 hs after the irradiation, Rate for inhibition: 2 hs after irradiation; for 3 hs after the irradiation, Average ± standard error / 3 hs after the irradiation, Rate for inhibition: 3 hs after irradiation; for 5 hs after the irradiation, Average ± standard error / 5 hs after the irradiation, Rate for inhibition: 5 hs after irradiation
Protocol: With respect to Compounds 1 to 3, 15 and 21 which are especially useful as an anti-inflammatory drug, IM and DF, inhibition action for ultraviolet erythema was investigated according to the method of Adames et al [cf. Nature, London, 181, 773 (1958)] using guinea pigs as follows: Male Hartley guinea pigs weighing 250 to 350 g were shaved at their sides the day before and two hrs before the ultraviolet irradiation. To the guinea pigs were administered orally Compounds 1 to 3, 15 and 21, IM and DF in amounts as described in Table 2, respectively. To the control group was administered orally only Tween-80. At 1 hr after the time of administration, the guinea pigs were irradiated at their shaved sides by ultraviolet beam for 40 seconds.
The reaction of the ultraviolet erythema was evaluated at 2 hrs, 3 hrs and 5 hrs after irradiation according to the method of Winder et al [cf. Arch. Int. Pharmacodyn., 116, 261 (1958)]. […] Compounds 1 and 2 show a duration of the pharmacological effect over 5 hrs, contrary to that IM has a duration of 2 hrs.

in vivo [1] = conditions: mouse, po
[2] = Rate of hydrolysis in rat plasma; format: in vitro ADME; conditions: in 1 ml of plasma rat (37° C., incubation for 1 hr)
Protocol: **in 1 ml of plasma rat (37° C., incubation for 1 hr)

thiopental-induced sleep = experiment: potentiating effect on thiopental-induced sleep in mice; format: in vivo, male ddY mice; conditions: mouse, in vivo
Protocol: (§1) Effect on central nervous system, which is another side effect of IM, was investigated according to the potentiating effect on thiopental-induced sleep in mice as follows: Male ddY mice weighing 20 to 24 g were subjected to fasting for 15 hrs. […] At 30 mins after the administration, thiopental sodium was injected intravenously to each of the mice in an amount of 35 mg/l kg body weight, and then, the sleeping time was observed. When the sleeping time of the mice to which the Test Compound was administered was longer than 2 times that of the control to which only Tween-80 was administered, the given Test Compound was judged to be effective on thiopental-induced sleep potentiating effect.

[3] = as above; format: in vivo, male ddY mice; conditions: mouse, in vivo, po
Protocol: as §1

in vivo [4] = conditions: rat, po
Protocol: Gastrointestinal ulcer formation action, which is a principal side effect of an acid anti-inflammatory drug, was investigated according to the method of Okabe et al [cf. […] The compounds of the present invention, IM, DF and acemethacin were suspended in 5% Tween-80 solution and administered orally 1 ml/100 g body weight to the rats, respectively. At 6 hrs after the administration, the state of glandstomach was observed by means of a dissecting microscope whether the ulcer having a diameter more than 1 mm was generated or not.

carrageenan edema = experiment: inhibition test of carrageenan edema employing a foot-pad edema method; format: in vivo, male Wister rats; conditions: Rattus norvegicus; male Wister rats, foot-pad edema; read-out: ED50 for inhibition for carrageenan edema
Source text: Anti-inflammatory action was investigated according to the method of Winter et al [cf. Pro. Soc. Exp. Biol. Med., 111, 544 (1962)] by the inhibition test of carrageenan edema employing a foot-pad edema method using carrageenan as an irritating agent and male Wister rats weighing 130 to 170 g.

COc1ccc2c(c1)c(CC(=O)OCCOC(C)=O)c(C)n2C(=O)c1ccc(Cl)cc1 [Compound 3, 2-(Acetoxy)ethyl[1-(p-chlorobenzoyl)-5-methoxy-2-methyl-3-indolyl]acetate]
2 hs after the irradiation, Average ± standard error (ultraviolet erythema; 3 mg/kg orally): 0.5 ± 0.224 | 2 hs after the irradiation, Rate for inhibition (ultraviolet erythema; 3 mg/kg orally): 81.3 | 3 hs after the irradiation, Average ± standard error (ultraviolet erythema; 3 mg/kg orally): 2.5 ± 0.224 | 3 hs after the irradiation, Rate for inhibition (ultraviolet erythema; 3 mg/kg orally): 11.7 | 5 hs after the irradiation, Average ± standard error (ultraviolet erythema; 3 mg/kg orally): 2.83 ± 0.167 | 5 hs after the irradiation, Rate for inhibition (ultraviolet erythema; 3 mg/kg orally): 0 | 2 hs after the irradiation, Average ± standard error (ultraviolet erythema; 10 mg/kg orally): 0.67 ± 0.333 | 2 hs after the irradiation, Rate for inhibition (ultraviolet erythema; 10 mg/kg orally): 74.9 | 3 hs after the irradiation, Average ± standard error (ultraviolet erythema; 10 mg/kg orally): 2.3 ± 0.211 | 3 hs after the irradiation, Rate for inhibition (ultraviolet erythema; 10 mg/kg orally): 18.7 | 5 hs after the irradiation, Average ± standard error (ultraviolet erythema; 10 mg/kg orally): 2.50 ± 0.224 | 5 hs after the irradiation, Rate for inhibition (ultraviolet erythema; 10 mg/kg orally): 11.7 | LD50 (in vivo [1]): 65 mg/kg | metabolised at 1 h [2]: 97.3% | potentiating effect on thiopental-induced sleep relative to IM (thiopental-induced sleep): 1/5.7 | ED50 [3]: 600 mg/kg | TD50 at 6 h (in vivo [4]): 15 mg/kg | ED50 (carrageenan edema): 6 mg/kg
